Reference: patent US20230049549A1, “PEPTIDE COMPOUNDS AND METHODS OF TREATING DISEASES USING SAME” (Immunity Pharma Ltd., priority 2020, published 2023)
Where no end group is shown, it is not given here. [ ]: non-standard residue; d: D form. dimethylproline = dimethylproline (dMP); Aib = CC(C)(N)C(=O)O

Test system: BALB/c mice
Assay: Rescue from dexamethasone-induced spleen and thymus weight and cell loss in mice
Type: in vivo, mouse
Settings: for Average: average of spleen weight, spleen cell number, thymus weight, thymus cell number, Normal = 100%, DEXA alone 47%; for Thymus Cell number: relative to Normal mice = 100% (DEXA alone 23%); for Thymus Cell number / Thymus Weight / Spleen Cell number / Spleen Weight: dexamethasone 100 μg IP, peptide 200 μg/mouse IV immediately and 24 hours after, sacrificed 48 hours; for Thymus Weight: relative to Normal mice = 100% (DEXA alone 44%); for Spleen Cell number: relative to Normal mice = 100% (DEXA alone 59%); for Spleen Weight: relative to Normal mice = 100% (DEXA alone 62%)
Experimental: Dexamethasone is a corticosteroid medication that induces apoptosis of immune cells and lymphomyeloid tissues. BALB/c mice were used to examine the ability of candidate peptides to rescue lymphocyte cells from apoptosis. Mice were injected IP with 100 μg of Dexamethasone. Dexamethasone-treated mice received immediately following and 24-hours after dexamethasone treatment IV injection of candidate peptides (200 μg peptide/mouse). Mice were sacrificed 48 hours after the first treatment. The spleen and the thymus were weighted and full cell count of both organs was performed.
Peptides used in the screen were SEQ ID NOs: 1-13. The peptide of SEQ ID NO: 42 was used as a positive control. The peptides set forth in SEQ ID NOs: 35-41 were used as negative controls.

| Substance | Average [%] | Thymus Cell number [%] | Thymus Weight [%] | Spleen Cell number [%] | Spleen Weight [%] |
| --- | --- | --- | --- | --- | --- |
| 1 (LPPL[Aib]YP) [compound 1] | 65 | 28 | 59 | 82 | 89 |
| 2 (LPPLPY[Aib]) [compound 2] | 65 | 25 | 61 | 85 | 89 |
| 4 ([dP]PL[Aib]Y-NH2; N-terminus assumed; SMILES CC(C)C[C@H](NC(=O)[C@@H]1CCCN1C(=O)[C@H]1CCCN1)C(=O)NC(C)(C)C(=O)N[C@@H](Cc1ccc(O)cc1)C(N)=O) [compound 4] | 61 | 31 | 55 | 82 | 77 |
| 5 ([dL]PPH[Aib]Y-NH2; N-terminus assumed; SMILES CC(C)C[C@@H](N)C(=O)N1CCC[C@H]1C(=O)N1CCC[C@H]1C(=O)N[C@@H](Cc1c[nH]cn1)C(=O)NC(C)(C)C(=O)N[C@@H](Cc1ccc(O)cc1)C(N)=O) [compound 5] | 68 | 49 | 52 | 91 | 81 |
| 6 (LPP[dL]PYP) [compound 6] | 58 | 23 | 48 | 80 | 80 |
| 7 (L[dimethylproline]PLPYP) [compound 7] | 67 | 29 | 72 | 82 | 84 |
| 8 (LPPVPYP) [compound 8] | 60 | 30 | 53 | 82 | 76 |
| 9 (LPPSPYP) [compound 9] | 61 | 31 | 55 | 82 | 76 |
| 10 (LPPHPYP) [compound 10] | 65 | 33 | 56 | 85 | 84 |
| 11 ([dL]PPHPYP) [compound 11] | 68 | 49 | 52 | 91 | 81 |
| 12 ([dL]P[Aib]LAYP) [compound 12] | 72 | 51 | 63 | 85 | 89 |
| 13 (LP[dimethylproline]LPYP) [compound 13] | 65 | 44 | 49 | 84 | 82 |
| 35 (LPPH[Aib]YP) [compound 35] | 52 | 39 | 42 | 65 | 62 |
| 36 ([dL]PPH[Aib]YP) [compound 36] | 54 | 40 | 43 | 69 | 64 |
| 37 (Ac-PPL[Aib]Y-NH2; SMILES CC(=O)N1CCC[C@H]1C(=O)N1CCC[C@H]1C(=O)N[C@@H](CC(C)C)C(=O)NC(C)(C)C(=O)N[C@@H](Cc1ccc(O)cc1)C(N)=O) [compound 37] | 55 | 24 | 48 | 77 | 69 |
| 38 ([dL]PPL[Aib]YP) [compound 38] | 52 | 24 | 50 | 66 | 67 |
| 39 ([dL]PPL[Aib]Y) [compound 39] | 55 | 27 | 50 | 73 | 69 |
| 40 ([dL]PPLAY) [compound 40] | 55 | 34 | 41 | 72 | 72 |
| 41 ([dL]PPLAY[Aib]) [compound 41] | 51 | 25 | 49 | 61 | 69 |
| 42 (LPPLPYP) [compound 42] | 59 | 34 | 47 | 78 | 79 |
